Test results taken from patent US9241491B2, “Aerosol” (SABAN VENTURES PTY LIMITED, priority 2005, dated 2016).

Columns and labels:
[1] = Maximum peroxide concentration (peroxide density) in gas phase; assay type: physicochemical; conditions: for maximum achievable concentration for vapour systems: no evacuation; for Max. peroxide vapour concentration: initial 35% H2O2 solution
Spore strips = conditions: atmospheric pressure, below 80° C.; could not be achieved in less; cited from earlier work

OO [hydrogen peroxide vapour, hydrogen peroxide]
maximum achievable concentration for vapour systems ([1]; 0% humidity): 2.0 mg/L
maximum achievable concentration for vapour systems ([1]; 25° C., 40% RH): 0.9 mg/L
Max. peroxide vapour concentration ([1]; 20 ° C., 10% RH): 0.97 mg/L
Max. peroxide vapour concentration ([1]; 20 ° C., 20% RH): 0.85 mg/L
Max. peroxide vapour concentration ([1]; 20 ° C., 40% RH): 0.62 mg/L
Max. peroxide vapour concentration ([1]; 20 ° C., 80% RH): 0.14 mg/L
Max. peroxide vapour concentration ([1]; 40 ° C., 10% RH): 4.13 mg/L
Max. peroxide vapour concentration ([1]; 40 ° C., 20% RH): 2.59 mg/L
Max. peroxide vapour concentration ([1]; 40 ° C., 40% RH): 2.66 mg/L
Max. peroxide vapour concentration ([1]; 40 ° C., 80% RH): 0.63 mg/L
Max. peroxide vapour concentration ([1]; 60 ° C., 10% RH): 14.4 mg/L
Max. peroxide vapour concentration ([1]; 60 ° C., 20% RH): 12.60 mg/L
Max. peroxide vapour concentration ([1]; 60 ° C., 40% RH): 9.1 mg/L
Max. peroxide vapour concentration ([1]; 60 ° C., 80% RH): 2.31 mg/L
time to sterilization (Spore strips): ≥ 6 h
